Measurements: publication PMC8994274, “A proteolysis-targeting chimera molecule selectively degrades ENL and inhibits malignant gene expression and tumor growth” (Journal of Hematology & Oncology, 2022)
Like-named read-outs stand apart in the source and are kept apart here.

What was measured:
[1] = system: Kasumi-1 cells; experiment: Antiproliferation assay (XTT), Kasumi-1; conditions: Homo sapiens, Kasumi 1, 168 h, read-out: Antiproliferative activity, EC50, Kasumi-1
Description: (§2) Proliferation inhibition assays for suspension blood cancer cells were performed using an XTT assay kit (Biotium), following our previous methods [22]. EC50 values were determined using Prism 5 and from at least three independent experiments.

[2] = system: Molm-13 cells; experiment: Antiproliferation assay (XTT), Molm-13; conditions: for EC50: Homo sapiens, MOLM-13, 168 h, read-out: Antiproliferative activity, EC50, Molm13
Description: as §2

[3] = system: MV4;11 cells; experiment: Antiproliferation assay (XTT), MV4;11; conditions: Homo sapiens, MV4-11, 168 h, read-out: Antiproliferative activity, EC50, MV4;11
Description: as §2

[4] = biological target: T1, ENL YEATS (Homo sapiens, UniProt Q03111)
T1 sequence (Q03111 1-138): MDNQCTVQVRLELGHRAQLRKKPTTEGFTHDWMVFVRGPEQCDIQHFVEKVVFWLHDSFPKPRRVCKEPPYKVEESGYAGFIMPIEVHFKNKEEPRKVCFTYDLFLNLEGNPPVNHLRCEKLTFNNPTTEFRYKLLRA
Description: cDNA for human ENL YEATS domain (1–138) was synthesized (by Genscript) and cloned into pET-28a vector.
(§3) AlphaScreen binding assay was developed using Perkin-Elmer AlphaScreen Histidine (Nickel Chelate) Detection Kit, following a reported protocol [39]. Data were imported into Prism (version 5.0), and IC50 values from 3 independent experiments with standard deviation were obtained by using a standard dose–response curve fitting.

[5] = system: Hela cells; experiment: Antiproliferation assay, Hela; conditions: Homo sapiens, read-out: Antiproliferative activity, EC50, Hela
[6] = biological target: T2, ENL (Homo sapiens, UniProt Q03111); experiment: ENL degradation in MV4;11 cells (Western blot); type: cell-based; parameters: endogenous in cells; host or cells: MV4;11; conditions: for Dmax: MV4-11, MV4;11 cells, read-out: Dmax (maximal degradation) of ENL; for Dmax / DC50: 24 h; for DC50: read-out: DC50 (concentration at which a protein is reduced by 50%) of ENL
T2 sequence (Q03111 1-559): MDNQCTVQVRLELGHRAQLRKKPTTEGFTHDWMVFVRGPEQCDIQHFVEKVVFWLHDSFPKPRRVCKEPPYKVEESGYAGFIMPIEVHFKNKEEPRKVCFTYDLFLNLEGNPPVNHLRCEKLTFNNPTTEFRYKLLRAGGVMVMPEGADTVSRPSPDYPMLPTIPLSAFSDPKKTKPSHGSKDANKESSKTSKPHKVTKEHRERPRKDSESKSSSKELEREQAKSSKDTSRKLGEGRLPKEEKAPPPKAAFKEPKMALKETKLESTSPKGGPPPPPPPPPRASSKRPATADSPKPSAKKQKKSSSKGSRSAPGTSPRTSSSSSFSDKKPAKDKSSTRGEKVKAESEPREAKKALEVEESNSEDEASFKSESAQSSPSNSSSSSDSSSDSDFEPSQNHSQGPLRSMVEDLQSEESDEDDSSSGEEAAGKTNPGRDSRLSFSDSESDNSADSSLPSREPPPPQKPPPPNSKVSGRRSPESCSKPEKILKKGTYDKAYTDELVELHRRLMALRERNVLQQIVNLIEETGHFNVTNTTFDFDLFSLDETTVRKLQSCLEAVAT
Description: We next tested whether these compounds degrade ENL and AF9 in MV4;11 leukemia cells with the MLL1-AF4 oncogene. Upon compound treatment for 24 h, the cells were washed, lysed, and the lysates subjected to SDS-PAGE (sodium dodecyl sulfate–polyacrylamide gel electrophoresis) followed by detection with Western blot.
3 × 10^6 cells/well were treated with increasing concentrations of a compound for 1 day, and whole proteins were extracted. Equal amounts of proteins were separated on SDS-PAGE and transferred to PVDF membranes. The blots were probed with primary antibodies, followed by anti-rabbit IgG (Thermo Scientific) secondary antibodies. The primary antibodies against ENL (Cell signaling #14893), AF9 (Novusbio #NB100-1565), DOT1L (Cell signaling #77087), AFF4 (Abcam #ab103586), Cyclin T1 (Cell signaling #81464), H3K79me2 (Cell signaling #5427), H3K79me1 (Cell signaling #9398), Histone H3 (Cell signaling #4499), FLAG (Sigma-Aldrich #F1804), β-Actin (Cell signaling #4970) were used in this study.

[7] = biological target: T3, AF9 YEATS (Homo sapiens, UniProt P42568); experiment: ALPHA assay, inhibition of the AF9 YEATS-H3K27ac interaction
T3 sequence (P42568 1-138 limits assumed): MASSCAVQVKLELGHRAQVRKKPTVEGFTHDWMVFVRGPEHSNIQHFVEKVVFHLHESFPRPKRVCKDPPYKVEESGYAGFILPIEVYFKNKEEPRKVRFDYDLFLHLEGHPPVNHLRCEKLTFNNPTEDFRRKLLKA
Description: as §3

[8] = system: U266 cells; experiment: Antiproliferation assay (XTT), U266; conditions: Homo sapiens, U-266, 168 h, read-out: Antiproliferative activity, EC50, U266
Description: as §2

[9] = system: RPMI-8226 cells; experiment: Antiproliferation assay (XTT), RPMI-8226; conditions: Homo sapiens, RPMI-8226, 168 h, read-out: Antiproliferative activity, EC50, RPMI-8226
Description: as §2

[10] = system: Panc1 cells; experiment: Antiproliferation assay, Panc1; conditions: Homo sapiens, PANC-1, 168 h, read-out: Antiproliferative activity, EC50, Panc1
[11] = system: blood and solid tumor cells; experiment: Antiproliferation assay, ranges given over several cell lines; type: cell-based
Description: as §2

[12] = biological target: T2, ENL; experiment: ENL in nucleus and cytoplasm of MV4;11 cells (Western blot); type: cell-based; parameters: endogenous in cells; host or cells: MV4;11; conditions: 4 days, compound 1 at 500 nM
Description: Upon treatment of MV4;11 cells with these compounds for 4 days, cytoplasmic and nuclear proteins were separated and subjected to SDS-PAGE/Western blot.
(§1) 3 × 10^6 cells/well were treated with increasing concentrations of a compound for 1 day, and whole proteins were extracted. Equal amounts of proteins were separated on SDS-PAGE and transferred to PVDF membranes. The blots were probed with primary antibodies, followed by anti-rabbit IgG (Thermo Scientific) secondary antibodies.

[13] = biological target: T2, ENL; experiment: Rescue of compound 1-mediated ENL degradation in MV4;11 cells; type: cell-based; parameters: endogenous in cells; host or cells: MV4;11; conditions: 2 h pre-treatment, then co-treatment with 1 (500 nM) for 24 h
Description: as §1

## C[C@H]1CCCN1Cc1nc2cc(NC(=O)c3ccc4c(cnn4CCCCCCNc4cccc5c4C(=O)N(C4CCC(=O)NC4=O)C5=O)c3)ccc2[nH]1 (stereo partly shown) [Compound 2]
[1]
  EC50: 19 ± 3.4 µM
[2]
  EC50: 0.49 ± 0.43 µM
[3]
  EC50: 1.6 ± 0.01 µM
[4]
  IC50: 0.1 µM
[5]; 168 h
  EC50: > 50 µM
[6]
  Dmax: ~68%
[6]; MV4;11 cells
  DC50: ~0.05 µM
[7]
  IC50: 0.317 ± 0.058 µM
[8]
  EC50: 17 µM
[9]
  EC50: 6 ± 0.9 µM
[10]
  EC50: > 50 µM

## C[C@H]1CCCN1Cc1nc2cc(NC(=O)c3ccc4c(cnn4CCCCNc4cccc5c4C(=O)N(C4CCC(=O)NC4=O)C5=O)c3)ccc2[nH]1 (stereo partly shown) [Compound 3]
[1]
  EC50: 50 µM
[2]
  EC50: 2.1 ± 0.03 µM
[3]
  EC50: 1.2 ± 0.05 µM
[4]
  IC50: 0.61 µM
[5]; 168 h
  EC50: > 50 µM
[6]
  Dmax: 89%
[6]; MV4;11 cells
  DC50: 0.072 µM
[7]
  IC50: 0.058 ± 0.02 µM
[8]
  EC50: 2.9 ± 1.8 µM
[9]
  EC50: 19 ± 3.8 µM
[10]
  EC50: > 50 µM

## C[C@H]1CCCN1Cc1nc2cc(NC(=O)c3ccc4c(cnn4CCCCNC(=O)CC45CC6CC(CC(C6)C4)C5)c3)ccc2[nH]1 [Compound 4]
[2]
  EC50: 0.98 ± 0.04 µM
[11]; cancerous cells
  Cytotoxic action over time: killing cancerous cells non-selectively within 3 days
[11]; non-selective activities, read-out: EC50 for blood and solid tumor cells (range over cell lines)
  EC50: 1 to 3.8 µM
[5]; 72 h
  EC50: 3.8 ± 1.2 µM
[6]; MV4;11 cells, even at 5 μM
  ENL reduction: did not reduce ENL
[9]
  EC50: 1.4 ± 0.46 µM

## C[C@H]1CCCN1Cc1nc2cc(NC(=O)c3ccc4c(cnn4C)c3)ccc2[nH]1 [SGC-iMLLT, reference compound]
[1]
  EC50: > 50 µM
[12]
  ENL level in the nucleus: no reduction or even an increase
[2]; 7-day incubation
  Antiproliferative activity, EC50, Molm13: weak activity
[2]
  EC50: 17 ± 1.1 µM
[3]
  EC50: > 50 µM
[5]; 168 h
  EC50: > 50 µM
[7]
  IC50: 0.011 ± 0.0006 µM
[8]
  EC50: > 50 µM
[9]
  EC50: > 50 µM
[13]
  Effect on compound 1-mediated ENL degradation: dose-dependently inhibit 1-mediated ENL degradation
[10]
  EC50: > 50 µM

## CC(C)C[C@H](NC(=O)[C@H](Cc1ccccc1)NC(=O)c1cnccn1)B(O)O [bortezomib]
[13]
  Effect on compound 1-mediated ENL degradation: dose-dependently inhibit 1-mediated ENL degradation

## O=C1CCC(N2C(=O)c3ccccc3C2=O)C(=O)N1 (stereo not shown) [thalidomide, reference compound]
[1]
  EC50: > 50 µM
[12]
  ENL level in the nucleus: did not reduce
[2]
  EC50: > 50 µM
[3]
  EC50: > 50 µM
[5]; 168 h
  EC50: > 50 µM
[8]
  EC50: > 50 µM
[9]
  EC50: > 50 µM
[13]
  Effect on compound 1-mediated ENL degradation: dose-dependently inhibit 1-mediated ENL degradation
[10]
  EC50: > 50 µM
